In brackets after ≈: the same amount, converted by molar mass.
Tests used:
Type in all cases: cell-based
[1] = test system: E. coli ∆acrB JW0451-2; test: MIC, E. coli ∆acrB; details: Escherichia coli, read-out: MIC acrB
Experimental: (§1) The inoculum used for all the experiments is derived from a single seed lot that is maintained as glycerol stocks at −80 °C and are sub cultured on LB plate for isolated colonies. Single colony of each strain is grown in M9 medium. All test compound stocks and dilutions are prepared in DMSO. Serial two-fold dilutions of compounds are prepared separately, with the concentrations ranging from 2 mg/mL to 0.015 mg/mL. To 150 µl (3–7 × 10^5 CFU/ml) of bacterial culture in 96 well microtitre plates, 3 μL compound from each of the dilutions is added to respective wells to obtain final concentrations ranging from 40 µg/mL to 0.3 µg/mL of the test compounds. Media control, culture control and appropriate reference drug controls are included. […] Growth is monitored by checking absorbance at 600 nm (A600). […] The samples from MIC and above concentrations are plated for MBC (Minimum Bactericidal Concentration). The samples are diluted 1:10 and plated on LB agar plates. […] The killing kinetics is determined by enumerating survivors at various time points following compound exposure. E. coli cells (~10^7 CFU/ml; A600 of 0.1) are treated with various concentrations (40 µg/mL to 0.3 µg/mL) of compounds in a 96-well microtitre plate. At various time intervals (0 to 8 h), 30 μl volumes of treated cultures are serially diluted and plated on LB agar plates. […] Data is expressed as the log10 CFU for each drug treatment.

[2] = test system: E. coli ∆tolC JW5503-1; test: MIC, E. coli ∆tolC; details: Escherichia coli, read-out: MIC tolC
Experimental: as §1

[3] = biological target: T1, AcrB efflux pump in E. coli BW25113 (Escherichia coli, UniProt P31224); test: Nile red efflux assay (whole-cell competition)
T1 construct: endogenous in cells; host or cells: E. coli BW25113 (wild type)
T1 sequence (P0AE06 25-397): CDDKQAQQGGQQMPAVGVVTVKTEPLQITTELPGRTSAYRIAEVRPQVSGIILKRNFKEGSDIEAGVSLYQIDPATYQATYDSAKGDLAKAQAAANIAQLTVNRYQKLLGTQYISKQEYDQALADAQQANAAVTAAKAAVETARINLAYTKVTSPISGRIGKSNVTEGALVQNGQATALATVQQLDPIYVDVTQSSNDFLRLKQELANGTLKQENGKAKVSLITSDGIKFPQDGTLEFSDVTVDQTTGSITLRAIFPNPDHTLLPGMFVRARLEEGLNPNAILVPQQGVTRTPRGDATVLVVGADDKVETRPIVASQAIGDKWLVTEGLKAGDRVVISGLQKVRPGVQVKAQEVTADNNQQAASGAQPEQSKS
T1 sequence (P31224 whole entry): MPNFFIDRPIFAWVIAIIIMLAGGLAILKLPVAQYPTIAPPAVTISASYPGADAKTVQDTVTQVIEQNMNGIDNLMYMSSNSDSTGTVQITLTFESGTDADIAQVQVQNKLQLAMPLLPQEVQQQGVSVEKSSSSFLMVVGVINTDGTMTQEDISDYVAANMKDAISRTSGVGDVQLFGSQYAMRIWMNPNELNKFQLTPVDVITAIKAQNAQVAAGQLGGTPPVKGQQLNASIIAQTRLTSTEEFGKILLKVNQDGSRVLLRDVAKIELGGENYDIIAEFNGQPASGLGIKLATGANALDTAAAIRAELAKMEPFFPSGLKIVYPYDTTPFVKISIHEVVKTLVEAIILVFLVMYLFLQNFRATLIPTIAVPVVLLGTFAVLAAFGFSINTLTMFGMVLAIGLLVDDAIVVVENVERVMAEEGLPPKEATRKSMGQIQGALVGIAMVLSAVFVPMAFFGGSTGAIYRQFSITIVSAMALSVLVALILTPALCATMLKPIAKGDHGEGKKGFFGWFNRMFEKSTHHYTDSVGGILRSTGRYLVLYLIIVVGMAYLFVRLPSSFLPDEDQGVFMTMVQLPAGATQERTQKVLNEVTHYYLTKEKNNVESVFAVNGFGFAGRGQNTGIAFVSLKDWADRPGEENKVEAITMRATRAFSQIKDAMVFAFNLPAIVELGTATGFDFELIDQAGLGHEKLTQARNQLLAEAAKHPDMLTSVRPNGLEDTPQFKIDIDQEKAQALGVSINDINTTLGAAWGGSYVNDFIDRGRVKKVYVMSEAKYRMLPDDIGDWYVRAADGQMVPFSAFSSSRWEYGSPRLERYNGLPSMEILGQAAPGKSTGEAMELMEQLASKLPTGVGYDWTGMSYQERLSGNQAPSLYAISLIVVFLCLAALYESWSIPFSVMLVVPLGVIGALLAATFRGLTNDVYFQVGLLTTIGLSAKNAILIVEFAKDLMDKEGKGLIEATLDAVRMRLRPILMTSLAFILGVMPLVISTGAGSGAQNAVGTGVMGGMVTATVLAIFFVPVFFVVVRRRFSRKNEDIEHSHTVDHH
T1 sequence (P02930 23-493, further chain): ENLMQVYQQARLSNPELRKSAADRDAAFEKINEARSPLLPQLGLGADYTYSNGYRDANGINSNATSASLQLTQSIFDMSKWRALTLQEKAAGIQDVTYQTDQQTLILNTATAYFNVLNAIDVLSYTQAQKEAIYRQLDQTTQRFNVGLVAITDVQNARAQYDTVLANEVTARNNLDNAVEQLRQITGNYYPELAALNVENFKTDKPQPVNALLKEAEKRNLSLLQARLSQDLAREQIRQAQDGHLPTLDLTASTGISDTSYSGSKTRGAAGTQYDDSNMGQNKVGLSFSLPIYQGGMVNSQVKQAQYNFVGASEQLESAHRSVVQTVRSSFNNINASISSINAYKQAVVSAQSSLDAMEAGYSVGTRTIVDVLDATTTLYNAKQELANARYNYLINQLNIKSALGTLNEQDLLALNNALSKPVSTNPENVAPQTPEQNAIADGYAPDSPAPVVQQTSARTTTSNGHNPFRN
Experimental: The Nile red assay is adopted from Bohnert et al.[18]. An overnight culture of E. coli strain BW25113 is harvested and is resuspended in 20 mM potassium phosphate buffer (pH 7.0) containing 1 mM MgCl2 (PPB). The cells are adjusted to an A660 of 1.0 in PPB and aliquoted into glass tubes (2 ml each). Carbonylcyanide-m-chlorophenylhydrazone (CCCP; a protonophore that uncouples the electron transport chain and thus inhibits AcrB mediated efflux) is added to a final concentration of 10 µM (5 mM stock solution in 50% DMSO) and incubated for 15 minutes before adding the potential competitor at desired concentrations. Nile red is then added (stock solution of 5 mM in 10% dimethyl formamide-90% ethanol [vol/vol]) to a final concentration of 5 µM. The cell suspension is incubated at room temperature on a shaker for 3 hours. The cells are harvested and resuspended in 2 ml PPB in the presence of the competitor. The cell suspension is aliquoted in a fluorimeter cuvette, to which, 100 µl of 1 M Glucose is added to activate the electron transport chain. The rate of efflux is measured by Tefflux50, it is the time taken for 50% of Nile red to be effluxed out in presence of the compounds. The fluorescence is measured (Excitation 552 nm, Emission 636 nm) for 200 seconds.

[4] = test system: ATCC25922; test: MIC on E. coli ATCC25922; details: strain ATCC25922
Experimental: as §1

[5] = test system: E. coli clinical isolates; test: MIC on panel of E. coli clinical isolates

`Cc1sc(NC(=O)c2ccc([N+](=O)[O-])s2)nc1-c1ccccc1` [compound 7, N-(5-Methyl-4-phenylthiazol-2-yl)-5-nitrothiophene-2-carboxamide] showed an MIC [1] of 1.25 µg/mL (≈ 3.62 µM), an MIC [2] of 1.25 µg/mL (≈ 3.62 µM) and a Tefflux50 ([3]; 1µM compound, time for 50% of Nile red to be effluxed, read for 200 seconds) of 88.05 s. The Tefflux50 ([3]; 9µM compound) was 200 s, the Tefflux50 ([3]; 27µM compound) was 200 s and the Tefflux50 ([3]; 81µM compound) was 200 s. For the same molecule, the Tefflux50 ([3]; 100µM compound) was 200 s, the Tefflux50 ([3]; 200µM compound) was 200 s and the Tefflux50 ([3]; 400µM compound) was 200 s. The “Concentration of compound required for complete inhibition of Nile red efflux (Tefflux50 >200 seconds)” value ([3]; E. coli BW25113) was 9 µM.

In the case of `O=C1CN(/N=C/c2ccc([N+](=O)[O-])o2)C(=O)N1` [nitrofurantoin, reference compound], the MIC [4] was 20 µg/mL (≈ 84 µM), the “MIC Range” value ([5]; 75 E.coli clinical isolates) was 5 to 160 µg/mL and the MIC50 ([5]; Escherichia coli, 75 E.coli clinical isolates, 50% clinical isolates) was 20 µg/mL (≈ 84 µM). The MIC90 ([5]; Escherichia coli, 75 E.coli clinical isolates, 90% clinical isolates) was 80 µg/mL (≈ 336 µM), the MIC ([5]; strain SEC001) was 80 µg/mL (≈ 336 µM) and the MIC ([5]; strain SEC002) was 20 µg/mL (≈ 84 µM). For the same molecule, the MIC ([5]; strain SEC003) was 40 µg/mL (≈ 168 µM), the MIC ([5]; strain SEC004) was 80 µg/mL (≈ 336 µM) and the MIC ([5]; strain SEC005) was 40 µg/mL (≈ 168 µM). It also gave an MIC ([5]; strain SEC006) of 20 µg/mL (≈ 84 µM), an MIC ([5]; strain SEC007) of 40 µg/mL (≈ 168 µM) and an MIC ([5]; strain SEC008) of 80 µg/mL (≈ 336 µM). It also gave an MIC ([5]; strain SEC011) of 40 µg/mL (≈ 168 µM), an MIC ([5]; strain SEC012) of 20 µg/mL (≈ 84 µM) and an MIC ([5]; strain SEC013) of 80 µg/mL (≈ 336 µM). It also gave an MIC ([5]; strain SEC014) of 20 µg/mL (≈ 84 µM), an MIC ([5]; strain SEC015) of 20 µg/mL (≈ 84 µM) and an MIC ([5]; strain SEC016) of 40 µg/mL (≈ 168 µM). For the same molecule, the MIC ([5]; strain SEC017) was 20 µg/mL (≈ 84 µM), the MIC ([5]; strain SEC018) was 20 µg/mL (≈ 84 µM) and the MIC ([5]; strain SEC019) was 40 µg/mL (≈ 168 µM). For the same molecule, the MIC ([5]; strain SEC020) was 160 µg/mL (≈ 672 µM), the MIC ([5]; strain SEC021) was 20 µg/mL (≈ 84 µM) and the MIC ([5]; strain SEC022) was 20 µg/mL (≈ 84 µM). For the same molecule, the MIC ([5]; strain SEC023) was 80 µg/mL (≈ 336 µM), the MIC ([5]; strain SEC024) was 20 µg/mL (≈ 84 µM) and the MIC ([5]; strain SEC025) was 40 µg/mL (≈ 168 µM). For the same molecule, the MIC ([5]; strain SEC026) was 20 µg/mL (≈ 84 µM), the MIC ([5]; strain SEC028) was 5 µg/mL (≈ 21 µM) and the MIC ([5]; strain SEC029) was 20 µg/mL (≈ 84 µM). For the same molecule, the MIC ([5]; strain SEC031) was 20 µg/mL (≈ 84 µM), the MIC ([5]; strain SEC032) was 20 µg/mL (≈ 84 µM) and the MIC ([5]; strain SEC033) was 20 µg/mL (≈ 84 µM). The MIC ([5]; strain SEC034) was 20 µg/mL (≈ 84 µM), the MIC ([5]; strain SEC035) was 40 µg/mL (≈ 168 µM) and the MIC ([5]; strain SEC036) was 40 µg/mL (≈ 168 µM). The MIC ([5]; strain SEC037) was 20 µg/mL (≈ 84 µM), the MIC ([5]; strain SEC038) was 20 µg/mL (≈ 84 µM) and the MIC ([5]; strain SEC039) was 20 µg/mL (≈ 84 µM). It also gave an MIC ([5]; strain SEC040) of 40 µg/mL (≈ 168 µM), an MIC ([5]; strain SEC041) of 20 µg/mL (≈ 84 µM) and an MIC ([5]; strain SEC042) of 10 µg/mL (≈ 42 µM). The MIC ([5]; strain SEC043) was 20 µg/mL (≈ 84 µM), the MIC ([5]; strain SEC044) was 80 µg/mL (≈ 336 µM) and the MIC ([5]; strain SEC045) was 20 µg/mL (≈ 84 µM). It also gave an MIC ([5]; strain SEC046) of 20 µg/mL (≈ 84 µM), an MIC ([5]; strain SEC047) of 40 µg/mL (≈ 168 µM) and an MIC ([5]; strain SEC048) of 40 µg/mL (≈ 168 µM). The MIC ([5]; strain SEC049) was 40 µg/mL (≈ 168 µM), the MIC ([5]; strain SEC050) was 20 µg/mL (≈ 84 µM) and the MIC ([5]; strain SEC051) was 40 µg/mL (≈ 168 µM). The MIC ([5]; strain SEC052) was 160 µg/mL (≈ 672 µM), the MIC ([5]; strain SEC053) was 40 µg/mL (≈ 168 µM) and the MIC ([5]; strain SEC054) was 20 µg/mL (≈ 84 µM). For the same molecule, the MIC ([5]; strain SEC055) was 20 µg/mL (≈ 84 µM), the MIC ([5]; strain SEC057) was 40 µg/mL (≈ 168 µM) and the MIC ([5]; strain SEC058) was 80 µg/mL (≈ 336 µM). The MIC ([5]; strain SEC059) was 20 µg/mL (≈ 84 µM), the MIC ([5]; strain SEC060) was 20 µg/mL (≈ 84 µM) and the MIC ([5]; strain SEC061) was 40 µg/mL (≈ 168 µM). The MIC ([5]; strain SEC062) was 20 µg/mL (≈ 84 µM), the MIC ([5]; strain SEC063) was 40 µg/mL (≈ 168 µM) and the MIC ([5]; strain SEC064) was 40 µg/mL (≈ 168 µM). For the same molecule, the MIC ([5]; strain SEC065) was 20 µg/mL (≈ 84 µM), the MIC ([5]; strain SEC067) was 20 µg/mL (≈ 84 µM) and the MIC ([5]; strain SEC068) was 20 µg/mL (≈ 84 µM). For the same molecule, the MIC ([5]; strain SEC069) was 20 µg/mL (≈ 84 µM), the MIC ([5]; strain SEC070) was 20 µg/mL (≈ 84 µM) and the MIC ([5]; strain SEC071) was 20 µg/mL (≈ 84 µM). For the same molecule, the MIC ([5]; strain SEC072) was 20 µg/mL (≈ 84 µM), the MIC ([5]; strain SEC073) was 40 µg/mL (≈ 168 µM) and the MIC ([5]; strain SEC074) was 40 µg/mL (≈ 168 µM). It also gave an MIC ([5]; strain SEC075) of 10 µg/mL (≈ 42 µM), an MIC ([5]; strain SEC076) of 20 µg/mL (≈ 84 µM) and an MIC ([5]; strain SEC077) of 80 µg/mL (≈ 336 µM). The MIC ([5]; strain SEC078) was 80 µg/mL (≈ 336 µM), the MIC ([5]; strain SEC079) was 20 µg/mL (≈ 84 µM) and the MIC ([5]; strain SEC080) was 40 µg/mL (≈ 168 µM).

From PMC5940854, “Nitrothiophene carboxamides, a novel narrow spectrum antibacterial series: Mechanism of action and Efficacy” (Scientific Reports, 2018)
